Earlier results in US8039024B2, “Device and composition for the delivery of a preservative-free balsamic cream” (APR Applied Pharma Research, S.A., priority 2008, dated 2011).

Conditions: sprayed directly onto the nasal mucosa of dogs and humans

SMILES	decongestant action
CC12CCC(CC1=O)C2(C)C (centres unmarked) [camphor, Camphor]	no decongestant action
CC1CCC(C(C)C)C(O)C1 (centres unmarked) [menthol, Menthol]	no decongestant action
